Patent US20160185735A1, “FATTY ACID ANALOGS AND THEIR USE” (UNIVERSITY OF PITTSBURGH - OF THE COMMONWEALTH SYSTEM OF …, priority 2013, published 2016)
Values joined by “and” are separate entries in the source; they are usually repeats but may differ in a detail not shown here. Identical values can stand only once. Blank lines part the entries; values can stand above or below the compound they belong to.

Key:
[1] = system: β-oxidation in heart tissue; assay: Folch-type extraction of 18F signal in heart tissue (oxidized vs unoxidized analog); format: in vivo, mice (ICR strain)
From the text: FIGS. 9-10 are graphs showing the distribution of ^18F signal in heart tissue taken from fasted mice (ICR strain) administered the ^18F-labeled oleate analog (compound Va). Folch-type extraction was used to separate “Organic” (unoxidized analog) from “Pellets” and “Aqueous” (oxidized fatty acid metabolites).

[2] = Tissue biodistribution of 18F-labeled tracers postinjection; format: in vivo, mice (ICR strain); conditions: for background muscle uptake: 0.5 and 2 hours postinjection
Procedure: FIGS. 11 and 12 are graphs showing biodistribution of ^18F-labeled FTO (“FTO,” left bar, Compound I) and the ^18F-labeled oleate analog (“clicked FTO,” right bar, compound Va) at 0.5 hours (FIG. 11) and 2 hours (FIG. 12) postinjection into mice (ICR strain). Similar to ^18F-FTO, the ^18F-labeled oleate analog has low background muscle uptake at 0.5 and 2 hours postinjection.
FIG. 14 is a table showing tissue biodistribution of ^18F-labeled-Oleate analog (compound Va) in mice (ICR strain).

PCa cells = conditions: cited from earlier work
[3] = system: Ehrlich ascites tumor cells; conditions: injected directly into the peritoneal fluid; cited from earlier work
PC3 xenografts = assay: Small animal PET/CT imaging of tracer uptake in PC3 xenografts; format: in vivo, mice; conditions: 2 hours postinjection, listed as 18F-clicked-FTO
Procedure: Small animal PET/CT imaging was performed as previously described (Sprague et al., Clin. Cancer. Res. 2004, 10 (24), 8674-8682). Briefly, the ^18F-clicked palmitate or ^18F-clicked oleate analog (3.7 MBq) was injected via tail vein and the mouse was imaged at 2 hours postinjection. Static imaging was performed on an Inveon PET/CT scanner (Constantinescu et al., Phys. Med. Biol., 54, 2885-2899, 2009; Kemp et al., Phys. Med. Biol., 54, 2359-2376, 2009) with 10 min PET scanning followed by a 5 min CT. Inveon Research Workplace (IRW) from Siemens Healthcare Global was used for co-registration of PET/CT images and quantification of regions of interest (ROI). PET/CT images were reconstructed with maximum a posteriori (MAP), 3D ordered-subset expectation maximization (OSEM3D), 2D ordered-subset expectation maximization (OSEM2D), and filtered back projection (2DFBP). Standard uptake values (SUV) were generated by measuring ROI from PET/CT images and calculated with the formula: SUV=[nCi/ml]×[animal weight (g)]/injected dose [nCi]. FDG was injected intraperitoneally 36 hours pre-injection. 2-DG was injected intraperitoneally 4 hours pre-injection. […]

[4] = system: β-oxidation (myocardial uptake); assay: Blockage of β-oxidation / myocardial uptake with etomoxir; format: in vivo, mice
From the text: FIG. 13 is a graph showing the blockage of β-oxidation of ^18F-labeled FTO (“FTO,” left bar, Compound I) and the ^18F-labeled oleate analog (“clicked FTO,” right bar, compound Va) with etomoxir.

PC3 cells = assay: Post-fix click fluorescence microscopy of alkyne fatty acid uptake; format: cell-based; conditions: fixed, permeated, stained with sulfo-Cy3-azide
Procedure: Cells were treated with Alkyn-4-Thia-Palmitate, Alkyn-Palmitate, or control. The cells were then fixed, and incubated with sulfo-Cy3 azide to detect the trapped fatty acid analog.
This example illustrates in vitro analysis of fatty acid metabolism using the disclosed compounds. Cells were incubated with a fatty acid analog including a terminal alkyne group, fixed, and then treated with sulfo-Cy3-azide. The sulfo-Cy3-azide undergoes a click chemistry reaction (a 1,3-dipolar cycloaddition) with the terminal […] of the fatty acid homolog in the fixed cells to form a triazole ring linked to the fatty acid analog. The Cy3 moiety is then detected by fluorescence microscopy.
• 1. Place approximately 500 PC3 cells on coverslip in 24 well plates. • 2. Starve the cell with 250 μL of glucose free media overnight. • 3. Replace the media before the experiment with fresh 250 μL of glucose free media. • 4. Add alkyne fatty acid to the selected wells with coverslip and 1% BSA 10 μL in the control well and incubate at 37° C. for 1 or 2 h. • 5. After respective time wash the cells with 500 μL of 1% BSA for 3×5 min to remove extra fatty acid. • 6. Fix the cells with 300 μL of 4% paraformaldehyde (PFA) for 15 min • 7. Wash the cells once with PBS. • 8. […] Mount the coverslip and analyze by fluorescence microscopy. […]

Compound: CCOC(=O)[C@@]1(CCCCCCOc2ccc(Cl)cc2)CO1 [Etomoxir, reference compound]
effect on extent of β-oxidation of the 18F-labeled oleate analog in heart tissue ([1]; fasted mice given compound Va): reduced the extent of the β-oxidation

background muscle uptake [2]: low
Compound: O=C(O)CCSCCCC/C=C\CCCCCCCC[18F] [FTO, [^18F]Fluoro-4-thia-oleic acid, reference compound]

Compound: [3H]C(CCCCCC)C([3H])CCCCCCCC(=O)O (centres unmarked) [^3H-palmitic acid]
uptake in PCa cells compared with 2-DG (PCa cells): dominant uptake

Compound: O=C[C@H](O)[C@@H](O)[C@H](O)[C@H](O)CO [^14C-glucose]
incorporation into Ehrlich ascites tumor cells / cellular lipids [3]: 1%

uptake in the tumor (SUV) (PC3 xenografts; 2-DG and FDG treated mice, 3.7 MBq via tail vein): 0.21 and 0.22
uptake in the tumor (SUV) (PC3 xenografts; control group not treated with 2-DG and FDG): 0.15 and 0.18
background muscle uptake [2]: low
in vivo defluorination relative to 18F-FTO ([2]; 0.5 hours postinjection): significantly less
in vivo defluorination relative to FTO ([2]; 2 hours postinjection): significantly inhibited
myocardial uptake relative to 18F-FTO ([2]; mice, postinjection): lower than the ^18F-FTO
myocardial uptake, blockage with etomoxir [4]: can be blocked with etomoxir
Compound: O=C(O)CCSCCCC/C=C\CCCCCCCc1cn(CC[18F])nn1 [compound Va, (Z)-3-((13-(1-(2-[^18F]fluoroethyl)-1H-1,2,3-triazol-4-yl)tridec-5-en-1-yl)thio)propanoic acid]
oxidation of the analog in heart tissue over time ([1]; fasted mice, Organic (unoxidized) vs Pellets and Aqueous (oxidized metabolites)): more of the fatty acid analog was oxidized

Compound: ^14C-palmitate
incorporation into Ehrlich ascites tumor cells / cellular lipids [3]: 40-50%

Compound: alkyn-4-thia-palmitate
uptake by PCa cells (PC3 cells): avidly take up
